Here are results for one molecule from patent publication US9012505B2, “Antimicrobial compounds and uses thereof” (priority 2010, dated 2015).

Assay [1] has as its system exsC. The experiment in a line: Semi-quantitative RT-PCR of T3SS gene expression. The note with it: MDEA treatment, concentration not given. It is filed as cell-based, Pseudomonas aeruginosa. Here is the method: Bacteria were grown in LB medium supplemented with 10 mM NTA at 37° C. with shaking (250 rpm) overnight were diluted to an OD600 of 0.05 in fresh LB medium and grown under the same conditions to an OD600 of 1.5. RNA samples were isolated using the RNeasy mini kit according to the manufacturer's instructions (Qiagen). The concentration and purity of RNA were determined by spectrometry and agarose gel electrophoresis. RT-PCR analysis was performed using the One-step RT-PCR kit according to the manufacturer's instructions (Qiagen) with the primer pairs RT-C—F/RT-C—R ((5′-[…] (SEQ ID NO: 5), 5′-[…] (SEQ ID NO: 6)).
The effect of MDEA on inhibition of T3SS was further analyzed by semi-quantitative RT-PCR. […] The data are consistent with the results based on the T3SS reporter (FIG. 3a).

The subject of assay [2] is Xanthomonas campestris strain 8004dF. The assay is described as follows: Biofilm assay (Xcc biofilm dispersal, cell aggregates by phase contrast microscopy). It is filed as cell-based. The note with it: YEB medium. The protocol:
For analysis of biofilm formation, a single colony of Xanthomonas campestris strain 8004dF (He et al., 2006) was inoculated and grown overnight at 28° C. in 5 ml of YEB medium. The bacterial cells in culture were visualized with a phase contrast microscope (Olympus BX50) and photographs were taken with an Olympus DP70 digital camera.
Given its structural similarity to DSF (Wang et al., 2004), which is known to regulate biofilm dispersal (Dow et al., 2003; He et al., 2006), MDEA was tested for its ability to promote Xcc biofilm dispersion. The Xcc DSF mutant ΔrpfF, which formed extensive cell aggregates (biofilm) in YEB medium (FIG. 2a), was used in this assay.

Assay [3] relates to C. albicans strain SC5314. The experiment in a line: Candida albicans germ tube formation (morphological transition). The format is cell-based. The note with it: 37° C., 3 h, solvent control about 70%. The protocol:
C. albicans strain SC5314 was incubated at 28° C. for overnight with shaking in the GMM medium consisting of 6.7 g of Bacto yeast nitrogen base (Difco) and 0.2% glucose (pH 7.2). C. albicans cells proliferate in yeast form under these conditions. The yeast cells were then diluted 20-fold in fresh GMM medium with or without MDEA. The cells were induced for 3 h at 37° C. Visualization and quantification of germ tube formation were performed using a phase contrast microscope (Olympus BX50) by counting about 400 C. albicans cells. The experiment was repeated twice, and the imaging was done with an Olympus DP70 digital camera.
Candida albicans is a fungal pathogen responsible for various forms of candiasis ranging from mucosal damages to serious systemic infections. It normally exists as a yeast but can form germ tubes (mycelia) under certain environmental conditions including human body temperature and serum. This morphological transition ability is critical for the fungal pathogen to establish infections. Mutants defective in morphological transitions are avirulent and unable to cause infections (Lo et al., 1997; Braun et al., 2000; Saville et al., 2003; Zheng et al., 2003). […] MDEA represents another structurally different unsaturated fatty acid. To determine its potential inhibitory activity MDEA was added to medium at various concentrations before inoculation of the fungal yeast cells, using methanol as a solvent control. After incubation at 37° C. for 3 h, about 70% of C. albicans cells in solvent control formed germ tubes (FIG. 4). In contrast, less than 30% and 5% of yeast cells could germinate in the presence of 0.5 or 5 μM of MDEA (FIG. 4). When the concentration was increased to 25 μM, the germ tube formation was reduced to 0.17% (FIG. 4).

The test system of assay [4] is PexsCEBA-lacZ (T3SS reporter strain). The experiment in a line: T3SS reporter PexsCEBA-lacZ β-galactosidase activity. The format is cell-based, Pseudomonas aeruginosa. The settings on record: LB medium with 10 mM NTA, OD600 about 1.5. The text has this: The promoter of exsCEBA was amplified by PCR using the primer pairs pC-F/pC-R ((5′-[…] (SEQ ID NO: 3)/5′-ggggcgcctcctaaagctc (SEQ ID NO: 4)), and cloned into the integration vector mini-CTX-lacZ (Zhou et al., 2007; Hoang et al., 2000; Becher and Schweizer, 2000). The construct was introduced into E. coli S17-1(λpir) and then integrated into the chromosome of P. aeruginosa as described previously (Hoang et al., 2000). The P. aeruginosa transconjugants were then selected on LB agar plates containing 100 μg/ml tetracycline and used as the T3SS reporter strain.
For determination of the inhibitory activity against T3SS, MDEA was added to the LB medium supplemented with 10 mM NTA before inoculation of the T3SS reporter strain. After incubation at 37° C. till OD600 reached about 1.5, the bacterial cells were harvested by centrifugation to measure the β-galactosidase activities following the method previously described (Jeffrey, 1992).
Type III secretion system (T3SS) is a major virulence determinant conserved in many Gram-negative bacterial pathogens. To test the ability of MDEA on regulation of T3SS gene expression in Pseudomonas aeruginosa, the T3SS reporter construct PexsCEBA-lacZ (Zhou et al., 2007) was used. The promoter PexsCEBA directs the expression of the T3SS master regulator ExsA, which positively controls the expression of all T3SS genes in P. aeruginosa (Yahr and Wolfgang, 2006; Frank, 1997).

Entries after “also recorded” stand apart in the source; their conditions may differ.

For `CC(C)CCCCC=CC/C=C\C(=O)O` [MDEA, cis-11-methyldodeca-2,5-dienoic acid], the “reduction in transcriptional expression of exsC” value in assay [1] is reported as “about 60%”. Besides, the “Effect on cell aggregates (biofilm) of Xcc DSF-deficient mutant” value is “inhibited 8004dF biofilm formation; also recorded: eliminated most of the cell aggregates” in assay [2] (1 μM MDEA) and “inhibited 8004dF biofilm formation; also recorded: all the cell aggregates disappeared” in assay [2] (5 μM MDEA). In addition, the “yeast cells that germinate (germ tube formation)” value in assay [3] (0.5 μM MDEA) is on record as “less than 30%”; in assay [3] (5 μM MDEA) it was less than 5%. This molecule also had a germ tube formation in assay [3] (25 μM MDEA) of 0.17%. The “reduction of PexsCEBA-lacZ activity” value in assay [4] (5 μM MDEA) is 64.1%; in assay [4] (10 μM MDEA), 68.5%; in assay [4] (25 μM MDEA), 74.4%.
